Data set [1] concerns the target T1, farnesyl transferase (파네실 전달효소) (Rattus norvegicus, UniProt Q02293+Q04631).
T1 construct: Q 세파로즈 고속 칼럼(Q Sepharose Fast Flow column)을 이용하여 부분 정제한 것을 사용하였다; from tissue; host or cells: rat (Sprague Dawley, male) brain homogenate, partially purified on Q Sepharose Fast Flow
Kind of data set: Farnesyl transferase inhibition, SPA with 3H-FPP and biotin-lamin B peptide. In kind it is biochemical, rat (Sprague Dawley). To be noted: 50% inhibitory concentration; room temperature, 30 min.

A short description of the next data set: Solubility. In kind it is physicochemical.
Data set [2] relates to colorectal cancer cells HCT116 (대장암세포 HCT116). Kind of data set: WST-1 growth inhibition, HCT116. In kind it is cell-based. To be noted: Homo sapiens, HCT-116, HCT116, 48 h. Background: Tetrazolium dyes change colour on reduction, which living cells bring about.
Data set [3] has as its system colorectal cancer cells HCA-7 (대장암세포 HCA-7). Kind of data set: WST-1 growth inhibition, HCA-7. In kind it is cell-based. To be noted: Homo sapiens, HCA-7, 48 h.
Data set [4] concerns colorectal cancer cells SW620 (대장암세포 SW620). In words: WST-1 growth inhibition, SW620. In kind it is cell-based. To be noted: Homo sapiens, SW-620, SW620, 48 h.
Data set [5] has as its system lung cancer cells NCI-H23 (폐암세포 NCI-H23). In words: WST-1 growth inhibition, NCI-H23. In kind it is cell-based. The conditions noted are these: Homo sapiens, NCI-H23, 48 h.
In data set [6] the test system is lung cancer cells A549 (폐암세포 A549). Kind of data set: WST-1 growth inhibition, A549. It counts as cell-based. To be noted: Homo sapiens, A549, 48 h.
The subject of data set [7] is breast cancer cells MDA-MB-231 (유방암세포 MDA-MB-231). In words: WST-1 growth inhibition, MDA-MB-231. In kind it is cell-based. The conditions noted are these: Homo sapiens, MDA-MB-231, 48 h.
The test system of the next data set is HEK293 (신장암세포 HEK293). Kind of data set: WST-1 growth inhibition, HEK293. It counts as cell-based. The conditions noted are these: Homo sapiens, HEK293, 48 h.
Data set [8] concerns prostate cancer cells DU145 (전립선암세포 DU145). Kind of data set: WST-1 growth inhibition, DU145. In kind it is cell-based. To be noted: Homo sapiens, DU-145, DU145, 48 h.

Structures are written as SMILES. pIC50: −log10 of the molar value. In brackets after ≈: the same amount, converted by molar mass.

With `COC1=C(OC)C(=O)C(=C(O)/C=C/c2ccccc2)C1=O` [Linderone, linderone], the pIC50 (usually the IC50 on a negative log10 scale, so that one unit is a factor of ten) in data set [1] is 4.48. The solubility entry is given as “가용성” in “Solubility” (Alcohols, DMSO) and “불용성” in “Solubility” (Hexane, H2O).

On to `COC(/C=C/c1ccccc1)=C1C(=O)C(OC)=C(OC)C1=O` [Methyllinderone, methyllinderone], for which the pIC50 in data set [1] was 4.36. In addition, the GI50 (usually the concentration at which growth is held to half of that of the control) in data set [2] amounted to 0.45 µg/mL (≈ 1.5 µM); in [3] it was 0.52 µg/mL (≈ 1.73 µM); in data set [4] it was 3.5 µg/mL (≈ 11.7 µM); in [5], 1.1 µg/mL (≈ 3.66 µM); in data set [6], 3.2 µg/mL (≈ 10.7 µM); in [7], 3.8 µg/mL (≈ 12.7 µM). Further, in the data set with HEK293 (신장암세포 HEK293), the GI50 amounted to 3 µg/mL (≈ 9.99 µM). In addition, the solubility entry is recorded as “가용성” in the data set “Solubility” (Alcohols, DMSO) and “불용성” in the data set “Solubility” (Hexane, H2O).

In the case of `COC1=CC(=O)C(=C(O)/C=C/c2ccccc2)C1=O` [Lucidone, lucidone], the negative-log IC50 (pIC50) in data set [1] is 3.90. Besides, the solubility entry in “Solubility” (Alcohols, DMSO) was “가용성”; in “Solubility” (Hexane, H2O), “불용성”.

In data set [1], `COC1=CC(=O)C(=C(/C=C/c2ccccc2)OC)C1=O` [Methyllucidone, methyllucidone] gave a pIC50 of 4.39. Also, the concentration for 50% growth inhibition (GI50) in data set [2] turned out to be 0.26 µg/mL (≈ 0.962 µM); in [3], 0.39 µg/mL (≈ 1.44 µM); in data set [4], 2 µg/mL (≈ 7.4 µM); in data set [5] it was 1 µg/mL (≈ 3.7 µM); in data set [6], 15 µg/mL (≈ 55.5 µM); in data set [8] it was 1.8 µg/mL (≈ 6.66 µM). Besides, the concentration for 50% growth inhibition (GI50) in data set [7] was 3.5 µg/mL (≈ 12.9 µM); with HEK293 (신장암세포 HEK293), 4.8 µg/mL (≈ 17.8 µM). Besides, the solubility result in the data set “Solubility” (Alcohols, DMSO) is “가용성”; in “Solubility” (Hexane, H2O), “불용성”.

The record behind these values is patent KR20060104555A, “사이클로펜타디온 유도체를 포함하는 항암 조성물” (한국생명공학연구원, priority 2005, dated 2006).
